From paper PMC10313671, “Accelerating the prediction and discovery of peptide hydrogels with human-in-the-loop” (Nature Communications, 2023)
Where a SMILES comes first, the peptide text is derived from it.

Key:
[1] = Peptide hydrogel formation, vial-inverting method; type: physicochemical; set-up: key to EXP / GELATION: 0: no hydrogel; 1: hydrogel; settings: for State: ultrasonication, standing 48 h; for State / GELATION / hydrogel formation (in words): vial-inverting method; for Concentration: concentration at which the state was recorded: lowest of 30, 60, 90, 120 mM that gave a gel, 120 mM for non-gelating peptides; for GELATION: 1 = hydrogel, 0 = no hydrogel; for EXP: experimental gelation result of the synthesized peptide; for hydrogel formation (in words): representative hydrogels pH between 7.0 to 7.5
Method: After validating the efficiency of APHC in predicting tetrapeptide hydrogels, we detailed the phase state of 165 synthesized tetrapeptides and the observed assembly behavior in an aqueous solution.
This work defines hydrogel formation as a self-supporting, non-flowing mixture of water and hydrogelator by the vial-inverting method. All purified tetrapeptides were dissolved in ultrapure water (to form a 30 mM solution initially), followed by the stepwise addition of 1 N NaOH solution to adjust the overall aqueous pH to 6.5–8.5. Meanwhile, a short-term ultrasonication treatment was applied after each pH adjustment to facilitate peptide solubilization and speed up peptide self-assembly. […] The mixture was allowed to stand in for another 48 h for complete hydrogelation. Upon the absence of gelation phenomenon during the aforementioned loops, we increased the peptide concentration (60 mM, 90 mM, and 120 mM were selected) and re-started such gelation operation loop to explore their gelation feasibility.

[2] = Transmission electron microscope (negative staining) of peptide assemblies; settings: for Morphology: TEM, negative staining with uranyl acetate, 120 kV
Method: We used the negative staining technique to observe the morphologies formed by peptides. A micropipette was used to load 10 μL of sample solution to a carbon-coated copper grid, and we used a piece of filter paper to remove the excess solution. After rinsing the grid with the deionized water, we used uranyl acetate to stain the sample for 1 minute and then rinsed the grid with deionized water again.

[3] = 120 mM peptide (highest tested) in ultrapure water, pH 6.5-8.5 (1 N NaOH), precipitate, sol, suspension = no gel
[4] = 30 mM peptide in ultrapure water, pH adjusted to 6.5-8.5 with 1 N NaOH, concentration raised 30/60/90/120 mM until gelation
[5] = 60 mM peptide in ultrapure water, pH 6.5-8.5 (1 N NaOH), no gel at 30 mM

| SMILES | State [1, 3] | Concentration [1] [µM] | GELATION ([1]; peptide concentration 120 mM) | Morphology ([2]; line of the table gives 120 mM) | also measured |
| --- | --- | --- | --- | --- | --- |
| C[C@H](NC(=O)[C@H](Cc1ccc(O)cc1)NC(=O)[C@@H](N)Cc1ccccc1)C(=O)N[C@@H](Cc1ccc(O)cc1)C(=O)O [FYAY] (H-FYAY-OH) | gel | 120000 | 1 | sheet |  |
| NCC(=O)N[C@@H](Cc1ccccc1)C(=O)N[C@@H](Cc1ccccc1)C(=O)N[C@@H](Cc1ccc(O)cc1)C(=O)O [GFFY] (H-GFFY-OH) |  | 30000 |  |  | State [1, 4]: gel; GELATION ([1]; peptide concentration 30 mM): 1; Morphology ([2]; line of the table gives 30 mM): sheet |
| NCC(=O)NCC(=O)NCC(=O)NCC(=O)O [GGGG] (H-GGGG-OH) | sol | 120000 | 0 | aggregates |  |
| CC(C)C[C@H](NC(=O)CN)C(=O)N[C@@H](CC(C)C)C(=O)N[C@@H](Cc1ccc(O)cc1)C(=O)O [GLLY] (H-GLLY-OH) | suspension | 120000 | 0 | sheet | EXP [1]: 0 |
| CC(C)[C@H](NC(=O)CN)C(=O)N[C@@H](Cc1ccccc1)C(=O)N[C@@H](Cc1ccc(O)cc1)C(=O)O [GVFY] (H-GVFY-OH) |  | 30000 |  |  | State [1, 4]: gel; GELATION ([1]; peptide concentration 30 mM): 1; Morphology ([2]; line of the table gives 30 mM): fibre |
| CC(C)C[C@H](NC(=O)[C@@H](NC(=O)CN)C(C)C)C(=O)N[C@@H](Cc1ccccc1)C(=O)O [GVLF] (H-GVLF-OH) |  | 60000 |  |  | State [1, 5]: gel; GELATION ([1]; peptide concentration 60 mM): 1; Morphology ([2]; line of the table gives 60 mM): rod |
| CSCC[C@H](NC(=O)[C@H](CC(N)=O)NC(=O)[C@@H](NC(=O)CN)C(C)C)C(=O)O [GVNM] (H-GVNM-OH) | suspension | 120000 | 0 | sphere |  |
| N[C@@H](Cc1c[nH]cn1)C(=O)N[C@@H](Cc1c[nH]cn1)C(=O)N[C@@H](Cc1c[nH]cn1)C(=O)N[C@@H](Cc1c[nH]cn1)C(=O)O [HHHH] (H-HHHH-OH) | sol | 120000 | 0 | aggregates |  |
| CC(C)C[C@H](NC(=O)[C@H](CC(C)C)NC(=O)[C@@H](N)Cc1c[nH]cn1)C(=O)N[C@@H](Cc1ccccc1)C(=O)O [HLLF] (H-HLLF-OH) |  | 90000 |  |  | State ([1]; 90 mM peptide in ultrapure water, pH 6.5-8.5 (1 N NaOH), no gel at lower concentrations): gel; GELATION ([1]; peptide concentration 90 mM): 1; Morphology ([2]; line of the table gives 90 mM): sheet |
| CC[C@H](C)[C@H](N)C(=O)N[C@@H](Cc1ccccc1)C(=O)N[C@H](C(=O)N[C@@H](Cc1ccc(O)cc1)C(=O)O)[C@@H](C)CC [IFIY] (H-IFIY-OH) |  | 60000 |  |  | State [1, 5]: gel; GELATION ([1]; peptide concentration 60 mM): 1; Morphology ([2]; line of the table gives 60 mM): hybrid(particle+fibre) |
| CC[C@H](C)[C@H](N)C(=O)N[C@@H](Cc1ccccc1)C(=O)N[C@@H](Cc1ccc(O)cc1)C(=O)N[C@H](C(=O)O)[C@@H](C)O [IFYT] (H-IFYT-OH) |  | 60000 |  |  | State [1, 5]: gel; GELATION ([1]; peptide concentration 60 mM): 1; hydrogel formation (in words) [1]: hydrogels; Morphology ([2]; line of the table gives 60 mM): sheet; morphology by TEM (in words) ([2]; aqueous solution or hydrogel, negative staining): interlaced nanosheets |
| CC[C@H](C)[C@H](N)C(=O)N[C@@H](Cc1c[nH]cn1)C(=O)N[C@@H](Cc1ccccc1)C(=O)N[C@H](C(=O)O)C(C)C [IHFV] (H-IHFV-OH) | sol | 120000 | 0 | sphere |  |
| CC[C@H](C)[C@H](N)C(=O)N[C@H](C(=O)N[C@H](C(=O)N[C@H](C(=O)O)[C@@H](C)CC)[C@@H](C)CC)[C@@H](C)CC [IIII] (H-IIII-OH) |  | 30000 |  |  | State [1, 4]: gel; GELATION ([1]; peptide concentration 30 mM): 1; Morphology ([2]; line of the table gives 30 mM): needle |
| CC[C@H](C)[C@H](N)C(=O)N[C@H](C(=O)N[C@H](C(=O)N[C@@H](CCCNC(=N)N)C(=O)O)[C@@H](C)CC)[C@@H](C)CC [IIIR] (H-IIIR-OH) | suspension | 120000 | 0 | aggregates |  |
| CC[C@H](C)[C@H](N)C(=O)N[C@@H](CC(C)C)C(=O)N[C@H](C(=O)N[C@H](C(=O)O)C(C)C)C(C)C [ILVV] (H-ILVV-OH) |  | 30000 |  |  | State [1, 4]: gel; GELATION ([1]; peptide concentration 30 mM): 1; Morphology ([2]; line of the table gives 30 mM): aggregates |
| CC[C@H](C)[C@H](N)C(=O)N[C@@H](CCSC)C(=O)N[C@H](C(=O)N[C@H](C(=O)O)C(C)C)C(C)C [IMVV] (H-IMVV-OH) |  | 30000 |  |  | State [1, 4]: gel; GELATION ([1]; peptide concentration 30 mM): 1; hydrogel formation (in words) [1]: can form hydrogel; Morphology ([2]; line of the table gives 30 mM): aggregates |
| CC[C@H](C)[C@H](N)C(=O)N[C@@H](CCC(N)=O)C(=O)N[C@H](C(=O)N[C@H](C(=O)O)[C@@H](C)CC)[C@@H](C)CC [IQII] (H-IQII-OH) |  | 60000 |  |  | State [1, 5]: gel; GELATION ([1]; peptide concentration 60 mM): 1; Morphology ([2]; line of the table gives 60 mM): hybrid(sphere+fibre) |
| CC[C@H](C)[C@H](N)C(=O)N[C@@H](CCCNC(=N)N)C(=O)N[C@H](C(=O)N[C@@H](Cc1c[nH]c2ccccc12)C(=O)O)C(C)C [IRVW] (H-IRVW-OH) | suspension | 120000 | 0 | sphere |  |
| CC[C@H](C)[C@H](N)C(=O)N[C@H](C(=O)N[C@@H](Cc1ccccc1)C(=O)N[C@@H](Cc1c[nH]c2ccccc12)C(=O)O)C(C)C [IVFW] (H-IVFW-OH) | gel | 120000 | 1 | sphere |  |
| CC[C@H](C)[C@H](N)C(=O)N[C@H](C(=O)N[C@H](C(=O)N[C@@H](Cc1ccccc1)C(=O)O)[C@@H](C)CC)C(C)C [IVIF] (H-IVIF-OH) |  | 30000 |  |  | State [1, 4]: gel; GELATION ([1]; peptide concentration 30 mM): 1; Morphology ([2]; line of the table gives 30 mM): sphere |
| CC[C@H](C)[C@H](N)C(=O)N[C@H](C(=O)N[C@H](C(=O)N[C@H](C(=O)O)[C@@H](C)CC)[C@@H](C)CC)C(C)C [IVII] (H-IVII-OH) |  | 30000 |  |  | State [1, 4]: gel; GELATION ([1]; peptide concentration 30 mM): 1; Morphology ([2]; line of the table gives 30 mM): sheet |
| CC[C@H](C)[C@H](N)C(=O)N[C@H](C(=O)N[C@H](C(=O)N[C@@H](Cc1ccc(O)cc1)C(=O)O)[C@@H](C)CC)C(C)C [IVIY] (H-IVIY-OH) |  | 60000 |  |  | State [1, 5]: gel; GELATION ([1]; peptide concentration 60 mM): 1; Morphology ([2]; line of the table gives 60 mM): aggregates |
| CC[C@H](C)[C@H](N)C(=O)N[C@@H](Cc1c[nH]c2ccccc12)C(=O)N[C@H](C(=O)N[C@H](C(=O)O)[C@@H](C)CC)[C@@H](C)CC [IWII] (H-IWII-OH) | suspension | 120000 | 0 | aggregates | EXP [1]: 0 |
| CC[C@H](C)[C@H](N)C(=O)N[C@@H](Cc1c[nH]c2ccccc12)C(=O)N1CCC[C@H]1C(=O)N[C@@H](Cc1c[nH]c2ccccc12)C(=O)O [IWPW] (H-IWPW-OH) | precipitate | 120000 | 0 | aggregates |  |
| CC(C)C[C@H](NC(=O)[C@H](CC(C)C)NC(=O)[C@H](Cc1ccccc1)NC(=O)[C@@H](N)CCCCN)C(=O)O [KFLL] (H-KFLL-OH) | sol | 120000 |  | aggregates |  |
| NCCCC[C@H](NC(=O)[C@H](CCCCN)NC(=O)[C@H](CCCCN)NC(=O)[C@@H](N)CCCCN)C(=O)O [KKKK] (H-KKKK-OH) | sol | 120000 | 0 | blank |  |
| CC(C)C[C@H](NC(=O)[C@H](CC(C)C)NC(=O)[C@@H](N)CCCCN)C(=O)N[C@@H](Cc1ccccc1)C(=O)O [KLLF] |  | 30000 |  |  | State [1, 4]: gel; GELATION ([1]; peptide concentration 30 mM): 1; Morphology ([2]; line of the table gives 30 mM): particle |
| CSCC[C@H](NC(=O)[C@@H](N)CCCCN)C(=O)N[C@@H](CC(C)C)C(=O)N[C@@H](Cc1ccccc1)C(=O)O [KMLF] (H-KMLF-OH) | suspension | 120000 | 0 | aggregates |  |
| CC(C)C[C@H](NC(=O)[C@H](Cc1c[nH]c2ccccc12)NC(=O)[C@@H](NC(=O)[C@@H](N)CCCCN)C(C)C)C(=O)O [KVWL] (H-KVWL-OH) |  | 60000 |  |  | State [1, 5]: gel; GELATION ([1]; peptide concentration 60 mM): 1; Morphology ([2]; line of the table gives 60 mM): fibre |
| CC(C)C[C@H](NC(=O)[C@H](C)NC(=O)[C@@H](N)CC(C)C)C(=O)N[C@@H](CCCNC(=N)N)C(=O)O [LALR] (H-LALR-OH) | suspension | 120000 | 0 | aggregates |  |
